Measured values: patent publication US6355799B1, “Substituted benzene compounds, process for their preparation, and herbicidal and defoliant compositions containing them” (ISK Americas Incorporated, priority 1997, dated 2002)

Columns and labels:
Type in all cases: in vivo
[1] = tested on: field corn (Zea mays L., var. Dekalb 535, CORN); experiment: Post-emerge test, crop safety; conditions: post-emerge; for phytotoxicity rating CORN (crop damage): 14 days after application, rating scale 0-100; for Post-emerge Herbicidal Activity CORN: crop damage rating 0-100 at 14 days after application
Summary of the method: (§1)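 Visual ratings on a 0-100 scale (0 no damage, 100 all plants dead) were taken at 14 days after treatment. Rates of 15-1000 g ai/ha in acetone, 187 l/ha, were sprayed onto soil one day after planting (pre-emerge) or onto 2-3 leaf plants with 0.25% v/v surfactant (post-emerge).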

[2] = tested on: upland rice (Oryza sp., var. Tebonnet, RICE); experiment: Post-emerge test, crop safety; conditions: post-emerge; for phytotoxicity rating RICE (crop damage): 14 days after application, rating scale 0-100; for Post-emerge Herbicidal Activity RICE: crop damage rating 0-100 at 14 days after application
Summary of the method: as §1

[3] = tested on: redroot pigweed (Amaranthus retroflexus, AMARE); experiment: Pre-emerge test, greenhouse herbicide activity screening
Summary of the method: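 Compounds in acetone were track-sprayed at 187 l/ha, 15–1000 g ai/ha, onto sandy loam pots. Pre-emerge seeds were sown one day before spraying, with surface watering afterwards. Post-emerge plants were at the 2–3 leaf stage and sprayed with 0.25% v/v non-ionic surfactant. Injury was rated 0–100 at 14 days.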

[4] = tested on: redroot pigweed (Amaranthus retroflexus, AMARE); experiment: Post-emerge test, greenhouse herbicide activity screening; conditions: post-emerge; for phytotoxicity rating AMARE: 14 days after application; for Post-emerge Herbicidal Activity AMARE: phytotoxicity rating 0-100 at 14 days after application
Summary of the method: (§2)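 Each test used a mechanized track sprayer delivering 187 l/ha of acetone solution at 15–1000 g ai/ha. Post-emerge foliage at 2–3 leaves was treated with added 0.25% v/v non-ionic surfactant and bottom-watered only. Injury was assessed on day 14, where 100 means total kill.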

[5] = tested on: lambsquarters (Chenopodium album, CHEAL); experiment: as above; conditions: post-emerge; for phytotoxicity rating CHEAL: 14 days after application, rating scale 0-100; for Post-emerge Herbicidal Activity CHEAL: phytotoxicity rating 0-100 at 14 days after application
Summary of the method: as §2

[6] = tested on: large crabgrass (Digitaria sanguinalis, DIGSA); experiment: as above; conditions: post-emerge; for phytotoxicity rating DIGSA: 14 days after application, rating scale 0-100; for Post-emerge Herbicidal Activity DIGSA: phytotoxicity rating 0-100 at 14 days after application
Summary of the method: as §2

[7] = tested on: ivyleaf morningglory (Ipomoea hederacea, IPOHE); experiment: as above; conditions: post-emerge; for phytotoxicity rating IPOHE: 14 days after application, rating scale 0-100; for Post-emerge Herbicidal Activity IPOHE: phytotoxicity rating 0-100 at 14 days after application
Summary of the method: as §2

[8] = tested on: velvetleaf (Abutilon theophrasti, ABUTH); experiment: as above; conditions: post-emerge; for phytotoxicity rating ABUTH: 14 days after application, rating scale 0-100; for Post-emerge Herbicidal Activity ABUTH: phytotoxicity rating 0-100 at 14 days after application
Summary of the method: as §2

[9] = tested on: barnyardgrass (Echinochloa crus-galli, ECHCG); experiment: as above; conditions: post-emerge; for phytotoxicity rating ECHCG: 14 days after application, rating scale 0-100; for Post-emerge Herbicidal Activity ECHCG: phytotoxicity rating 0-100 at 14 days after application
Summary of the method: as §2

[10] = tested on: johnsongrass (Sorghum halepense, SORHA); experiment: as above; conditions: post-emerge; for phytotoxicity rating SORHA: 14 days after application, rating scale 0-100; for Post-emerge Herbicidal Activity SORHA: phytotoxicity rating 0-100 at 14 days after application
Summary of the method: as §2

[11] = tested on: sicklepod (Cassia obtusifolia, CASOB); experiment: as above; conditions: post-emerge; for phytotoxicity rating CASOB: 14 days after application, rating scale 0-100; for Post-emerge Herbicidal Activity CASOB: phytotoxicity rating 0-100 at 14 days after application
Summary of the method: as §2

[12] = tested on: green foxtail (Setaria viridis, SETVI); experiment: as above; conditions: post-emerge; for phytotoxicity rating SETVI: 14 days after application, rating scale 0-100; for Post-emerge Herbicidal Activity SETVI: phytotoxicity rating 0-100 at 14 days after application
Summary of the method: as §2

[13] = tested on: field corn (Zea mays L., var. Dekalb 535, CORN); experiment: Pre-emerge test, crop safety
Summary of the method: (§3)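 Herbicidal damage is scored 0 (none) to 100 (complete plant death) two weeks after a simulated field spray. Rates span 15–1000 g ai/ha, delivered in acetone at 187 l/ha. For post-emergence treatments, plants have 2–3 leaves and the spray carries 0.25% v/v non-ionic surfactant.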

[14] = tested on: upland rice (Oryza sp., var. Tebonnet, RICE); experiment: Pre-emerge test, crop safety
Summary of the method: as §3

[15] = tested on: lambsquarters (Chenopodium album, CHEAL); experiment: Pre-emerge test, greenhouse herbicide activity screening
Summary of the method: as §1

[16] = tested on: large crabgrass (Digitaria sanguinalis, DIGSA); experiment: as above
Summary of the method: as §1

[17] = tested on: ivyleaf morningglory (Ipomoea hederacea, IPOHE); experiment: as above
Summary of the method: as §1

[18] = tested on: velvetleaf (Abutilon theophrasti, ABUTH); experiment: as above
Summary of the method: as §1

[19] = tested on: barnyardgrass (Echinochloa crus-galli, ECHCG); experiment: as above
Summary of the method: as §1

[20] = tested on: johnsongrass (Sorghum halepense, SORHA); experiment: as above
Summary of the method: as §1

[21] = tested on: sicklepod (Cassia obtusifolia, CASOB); experiment: as above
Summary of the method: as §1

[22] = tested on: green foxtail (Setaria viridis, SETVI); experiment: as above
Summary of the method: as §1

[23] = 63 g ai/ha, phytotoxicity rating 0-100, 14 days after application
[24] = 250 g ai/ha, phytotoxicity rating 0-100, 14 days after application
[25] = 63 g ai/ha, crop damage rating 0-100, 14 days after application
[26] = 250 g ai/ha, crop damage rating 0-100, 14 days after application
[27] = pre-emerge, rate 63 g ai/ha, phytotoxicity rating 0-100 at 14 days after application
[28] = pre-emerge, rate 250 g ai/ha, phytotoxicity rating 0-100 at 14 days after application
[29] = crop damage, pre-emerge, rate 63 g ai/ha, phytotoxicity rating 0-100 at 14 days after application
[30] = crop damage, pre-emerge, rate 250 g ai/ha, phytotoxicity rating 0-100 at 14 days after application

Cn1c(C(F)(F)F)cc(=O)n(-c2ccc(OC(F)(F)F)cc2NC(=O)c2ccc3ccccc3c2)c1=O [2-203] was tested, and the “phytotoxicity rating CORN (crop damage)” value ([1]; 63 g ai/ha) was 10, the “phytotoxicity rating CORN (crop damage)” value ([1]; 250 g ai/ha) was 10 and the “phytotoxicity rating RICE (crop damage)” value ([2]; 63 g ai/ha) was 25. The “phytotoxicity rating RICE (crop damage)” value ([2]; 250 g ai/ha) was 30, the “Pre-emerge Herbicidal Activity AMARE” value [3, 23] was 70 and the “Pre-emerge Herbicidal Activity AMARE” value [3, 24] was 100. The “phytotoxicity rating AMARE” value ([4]; 63 g ai/ha, rating scale 0-100 (0 no damage, 100 complete death)) was 100, the “phytotoxicity rating AMARE” value ([4]; 250 g ai/ha, rating scale 0-100) was 100 and the “phytotoxicity rating CHEAL” value ([5]; 63 g ai/ha) was 100. The “phytotoxicity rating CHEAL” value ([5]; 250 g ai/ha) was 100, the “phytotoxicity rating DIGSA” value ([6]; 63 g ai/ha) was 10 and the “phytotoxicity rating DIGSA” value ([6]; 250 g ai/ha) was 30. The “phytotoxicity rating IPOHE” value ([7]; 63 g ai/ha) was 60, the “phytotoxicity rating IPOHE” value ([7]; 250 g ai/ha) was 95 and the “phytotoxicity rating ABUTH” value ([8]; 63 g ai/ha) was 100. The “phytotoxicity rating ABUTH” value ([8]; 250 g ai/ha) was 100, the “phytotoxicity rating ECHCG” value ([9]; 63 g ai/ha) was 10 and the “phytotoxicity rating ECHCG” value ([9]; 250 g ai/ha) was 30. For the same molecule, the “phytotoxicity rating SORHA” value ([10]; 63 g ai/ha) was 10, the “phytotoxicity rating SORHA” value ([10]; 250 g ai/ha) was 20 and the “phytotoxicity rating CASOB” value ([11]; 63 g ai/ha) was 100. For the same molecule, the “phytotoxicity rating CASOB” value ([11]; 250 g ai/ha) was 100, the “phytotoxicity rating SETVI” value ([12]; 63 g ai/ha) was 20 and the “phytotoxicity rating SETVI” value ([12]; 250 g ai/ha) was 30. The “Pre-emerge Herbicidal Activity CORN” value [13, 25] was 0, the “Pre-emerge Herbicidal Activity CORN” value [13, 26] was 0 and the “Pre-emerge Herbicidal Activity RICE” value [14, 25] was 10. For the same molecule, the “Pre-emerge Herbicidal Activity RICE” value [14, 26] was 20, the “Pre-emerge Herbicidal Activity CHEAL” value [15, 23] was 100 and the “Pre-emerge Herbicidal Activity CHEAL” value [15, 24] was 100. The “Pre-emerge Herbicidal Activity DIGSA” value [16, 23] was 60, the “Pre-emerge Herbicidal Activity DIGSA” value [16, 24] was 90 and the “Pre-emerge Herbicidal Activity IPOHE” value [17, 23] was 10. The “Pre-emerge Herbicidal Activity IPOHE” value [17, 24] was 70, the “Pre-emerge Herbicidal Activity ABUTH” value [18, 23] was 75 and the “Pre-emerge Herbicidal Activity ABUTH” value [18, 24] was 100. The “Pre-emerge Herbicidal Activity ECHCG” value [19, 23] was 0, the “Pre-emerge Herbicidal Activity ECHCG” value [19, 24] was 80 and the “Pre-emerge Herbicidal Activity SORHA” value [20, 23] was 0. The “Pre-emerge Herbicidal Activity SORHA” value [20, 24] was 40, the “Pre-emerge Herbicidal Activity CASOB” value [21, 23] was 30 and the “Pre-emerge Herbicidal Activity CASOB” value [21, 24] was 90. For the same molecule, the “Pre-emerge Herbicidal Activity SETVI” value [22, 23] was 20 and the “Pre-emerge Herbicidal Activity SETVI” value [22, 24] was 70.

In the case of COc1ccc(COC(=O)Nc2c(C)c(Cl)cc(F)c2-n2c(=O)cc(C(F)(F)F)n(C)c2=O)cc1OC [4-63], the “Post-emerge Herbicidal Activity CORN” value ([1]; 63 g ai/ha) is reported as 10, the “Post-emerge Herbicidal Activity CORN” value ([1]; 250 g ai/ha) is reported as 30 and the “Post-emerge Herbicidal Activity RICE” value ([2]; 63 g ai/ha) is reported as 10. For the same molecule, the “Post-emerge Herbicidal Activity RICE” value ([2]; 250 g ai/ha) was 60, the “Pre-emerge Herbicidal Activity AMARE” value [3, 27] was 100 and the “Pre-emerge Herbicidal Activity AMARE” value [3, 28] was 100. For the same molecule, the “Post-emerge Herbicidal Activity AMARE” value ([4]; 63 g ai/ha) was 100, the “Post-emerge Herbicidal Activity AMARE” value ([4]; 250 g ai/ha) was 100 and the “Post-emerge Herbicidal Activity CHEAL” value ([5]; 63 g ai/ha) was 80. For the same molecule, the “Post-emerge Herbicidal Activity CHEAL” value ([5]; 250 g ai/ha) was 100, the “Post-emerge Herbicidal Activity DIGSA” value ([6]; 63 g ai/ha) was 0 and the “Post-emerge Herbicidal Activity DIGSA” value ([6]; 250 g ai/ha) was 10. The “Post-emerge Herbicidal Activity IPOHE” value ([7]; 63 g ai/ha) was 100, the “Post-emerge Herbicidal Activity IPOHE” value ([7]; 250 g ai/ha) was 100 and the “Post-emerge Herbicidal Activity ABUTH” value ([8]; 63 g ai/ha) was 100. The “Post-emerge Herbicidal Activity ABUTH” value ([8]; 250 g ai/ha) was 100, the “Post-emerge Herbicidal Activity ECHCG” value ([9]; 63 g ai/ha) was 0 and the “Post-emerge Herbicidal Activity ECHCG” value ([9]; 250 g ai/ha) was 20. For the same molecule, the “Post-emerge Herbicidal Activity SORHA” value ([10]; 63 g ai/ha) was 0, the “Post-emerge Herbicidal Activity SORHA” value ([10]; 250 g ai/ha) was 10 and the “Post-emerge Herbicidal Activity CASOB” value ([11]; 63 g ai/ha) was 60. The “Post-emerge Herbicidal Activity CASOB” value ([11]; 250 g ai/ha) was 100, the “Post-emerge Herbicidal Activity SETVI” value ([12]; 63 g ai/ha) was 0 and the “Post-emerge Herbicidal Activity SETVI” value ([12]; 250 g ai/ha) was 30. For the same molecule, the “Pre-emerge Herbicidal Activity CORN” value [13, 29] was 0, the “Pre-emerge Herbicidal Activity CORN” value [13, 30] was 35 and the “Pre-emerge Herbicidal Activity RICE” value [14, 29] was 40. For the same molecule, the “Pre-emerge Herbicidal Activity RICE” value [14, 30] was 90, the “Pre-emerge Herbicidal Activity CHEAL” value [15, 27] was 100 and the “Pre-emerge Herbicidal Activity CHEAL” value [15, 28] was 100. The “Pre-emerge Herbicidal Activity DIGSA” value [16, 27] was 70, the “Pre-emerge Herbicidal Activity DIGSA” value [16, 28] was 95 and the “Pre-emerge Herbicidal Activity IPOHE” value [17, 27] was 40. The “Pre-emerge Herbicidal Activity IPOHE” value [17, 28] was 100, the “Pre-emerge Herbicidal Activity ABUTH” value [18, 27] was 100 and the “Pre-emerge Herbicidal Activity ABUTH” value [18, 28] was 100. For the same molecule, the “Pre-emerge Herbicidal Activity ECHCG” value [19, 27] was 30, the “Pre-emerge Herbicidal Activity ECHCG” value [19, 28] was 70 and the “Pre-emerge Herbicidal Activity SORHA” value [20, 27] was 30. For the same molecule, the “Pre-emerge Herbicidal Activity SORHA” value [20, 28] was 50, the “Pre-emerge Herbicidal Activity CASOB” value [21, 27] was 40 and the “Pre-emerge Herbicidal Activity CASOB” value [21, 28] was 100. The “Pre-emerge Herbicidal Activity SETVI” value [22, 27] was 70 and the “Pre-emerge Herbicidal Activity SETVI” value [22, 28] was 100.
